“Also recorded” adds a separate entry of the source.

Data set [1] deals with human primary cells. Nature of the data set: Gene targeting across different genomic loci and primary cell types (summary statements). The format is cell-based. The following applies: in some examples. From the text: Nuclease-based genome editing can result in either site-specific insertions/deletions (INDELs) or targeted integrations depending on which pathway of natural DNA double-strand break repair is harnessed: non-homologous end-joining (NHEJ), microhomology mediated end-joining (MMEJ) or homology-directed repair (HDR).

Data set [2] relates to CCR5 locus in PSCs. In words: RNP/AAV6 gene targeting at CCR5 locus, knock-in of two stop codons, PSCs. It is filed as cell-based, human. The following applies: low activity gRNAs sg1 and sg4; 0.5 μM. The method, then:
(§1) PSC culture and genome editing. […] For each nucleofection, RNP complex was prepared with 5 μg of Cas9 protein and 2 μg of gRNA and incubated for 15 mins at room temperature. PSCs were dissociated into single cells using Accutase (Innovative Cell Technologies, cat: AT104). […] Resuspended cells were added to one well of a 16-well Nucleocuvette Strip (Lonza) and nucleofection was performed in the 4D nucleofector (Lonza) using the program, CA137. Nucleofected PSCs were plated in mTeSR1 medium supplemented with 10 μM of Y27632 at a density of 100,000 cells per well in 48-well plate, AAV6 vector and DNA-PKcs inhibitors were added to the medium at indicated concentrations. […] From the following day, PSCs were cultured in mTeSR1 without Y27632. Gene targeting efficiency was analyzed at 4-6 days post-editing.
ICE analysis for quantification of gene editing. ICE CRISPR analysis tool (Synthego) was used to determine the allelic distribution of WT, INDEL and HDR frequencies for gene targeting involving knock-in of short sequences and for calculating the frequency of WT and INDEL alleles for gene targeting involving knock-in of multi-kb sequences. […] Following PCR, the amplicons were detected on agarose gel and purified from the gel using GeneJet Gel Extraction Kit (Thermo Fisher Scientific, cat: K0692). […]

Data set [3] deals with PI3K family of kinases. Nature of the data set: Western blot, phosphorylation of AKT (Ser473) by PI3K family kinases in PSC. The format is cell-based, human. The following applies: 2 h. Background: A western blot detects proteins with antibodies after separation by electrophoresis.
Data set [4] deals with CFTR locus in HBECs. Nature of the data set: RNP/AAV6 gene targeting at CFTR locus in HBECs. The format is cell-based, human. The settings on record: 0.5 μM. The method, then: ICE analysis for quantification of gene editing.
Cell culture and genome editing of HBECs. Human bronchial epithelial cells (HBECs) were obtained from Lonza Inc., the Primary Airway Cell Biobank at McGill University, the Cystic Fibrosis Foundation Cell Bank or the University of North Carolina. […] Cells were cultured at 37° C. in 5% 02 and 5% CO2.

In data set [5] the test system is T cells. Nature of the data set: Viable cell count of CCR5 gene targeted T cells. It is filed as cell-based, human. The method, then:
(FIG. 34d). Next, we tested the effect of compound treatment when titrating down the AAV6 donor amounts for gene targeting at the CCR5 locus. […] For this, we assessed the CD19-CAR knock-in at the TRAC gene locus in T cells using a previously reported gene editing strategy^87 (FIG. 14c).
Cell viability measurement. MTT assay was used for measuring the gene edited PSC viability. […] After this incubation, MTT was removed, and cells were lysed using 100 μl of lysis buffer (0.1N HCl and 0.5% SDS in isopropanol). After lysis, absorbance was measured at 570 nm with 650 nm as the reference using a SpectraMax M3 plate reader (Molecular devices). The absorbance values were used to calculate the cell viability of gene edited cells as a percentage relative to the mock cells. […] Viable cell counts were represented as percentage relative to the mock or untreated cells as indicated.

The subject of data set [6] is CCR5 locus in HSPCs. Nature of the data set: RNP/AAV6 gene targeting at CCR5 locus in CD34+ HSPCs. It is filed as cell-based, human. The following applies: two stop codons; sg1 and sg4. How it is done:
ddPCR analysis of targeted integration. Gene targeting efficiency for the knock-in of multi-kb sequences was measured through digital droplet PCR (ddPCR) analysis. For this, genomic DNA was extracted from cells using the QuickExtract™ DNA Extraction Solution (QE) (Lucigen, Cat: QE09050). Pellets of 100,000 to 200,000 cells were resuspended in 40 to 50 μl of QE solution. This cell suspension was incubated at 65° C. for 6 mins and then 100° C. for 10 mins. The quick extracted genomic DNA was digested with either BamHI-HF or HindIII-HF (NEB) enzymes at 37° C. for 1 to 2 hours. […] 40 μl of the generated droplet sample was used for the PCR with the following cycle: 95° C. for 10 mins, 50 cycles of 94° C. for 30 secs, 60° C. for 30 secs and 72° C. for 2 mins and 98° C. for 10 mins. After PCR, the droplets were analyzed using the QX200 Droplet Digital PCR reader (Biorad) and Quantasoft software was used to determine the number of copies of the target and reference DNA in the droplets. The allelic gene targeting efficiency was calculated as the percentage of target DNA copies relative to that of the reference. […]
(§2) ICE analysis for quantification of gene editing. […] Following PCR, the amplicons were detected on agarose gel and purified from the gel using GeneJet Gel Extraction Kit (Thermo Fisher Scientific, cat: K0692). […]

Data set [7] concerns HBB locus in PSCs. Nature of the data set: RNP/AAV6 gene targeting at HBB locus in PSCs. It is filed as cell-based, human. The settings on record: UBC-GFP-bGHpA knock-in; 0.5 μM. How it is done: (§3) Gene targeting efficiency was measured by droplet digital PCR (ddPCR) and flow cytometry (for GFP) to measure the allelic targeting efficiency (FIG. 2B) and percentage of targeted cells (FIG. 2C) respectively. […] The treatment was carried out for 24 hours post gene targeting and the efficiency was calculated 1 week post gene targeting using ddPCR analysis.
(§4) First, we tested the treatment for editing the sickle cell disease (SCD) and cystic fibrosis (CF) mutations at HBB and CFTR loci respectively using the previously described Cas9 RNP and AAV6 donor reagents in WT PSC^71-73 (FIG. 19a-d).
PSC culture and genome editing. […] Gene targeting efficiency was analyzed at 4-6 days post-editing.
(§5) ddPCR analysis of targeted integration. Gene targeting efficiency for the knock-in of multi-kb sequences was measured through digital droplet PCR (ddPCR) analysis. […] After PCR, the droplets were analyzed using the QX200 Droplet Digital PCR reader (Biorad) and Quantasoft software was used to determine the number of copies of the target and reference DNA in the droplets. The allelic gene targeting efficiency was calculated as the percentage of target DNA copies relative to that of the reference. […]
as §2

For data set [8], the system named is HBA1 locus in PSCs. In words: RNP/AAV6 gene targeting / gene replacement at HBA1 locus in PSCs. The format is cell-based, human. The following applies: 0.5 μM. How it is done:
as §3, §4, §1, §5, §2

For data set [9], the system named is HSPCs. Nature of the data set: Colony forming units (CFU) assay and genotyping of CCR5 gene targeted HSPCs. The format is cell-based, human. The settings on record: for colonies with bi-allelic HDR knock-in: untreated 9%. The method, then:
Colony forming units assay and genotyping of clones. For colony forming units (CFU) assay, 250 to 500 HSPCs were plated in SmartDish 6-well plates ([…] Technologies, cat: 27370) containing MethoCult H4434 Classic ([…] Technologies, cat: 04444). After 14 days, colonies were counted and scored using STEMvision automated counter ([…] Technologies) to determine the number of BFU-E, CFU-M, CFU-GM, and CFU-GEMM colonies. To determine the ratio of monoallelic vs biallelic integration, individual colonies of each type were picked and genomic DNA was extracted with QE. ddPCR was used to determine the clones with mono- vs bi-allelic integration as mentioned. WT and INDEL frequencies in the clones were determined using ICE analysis.

Turning to `Cc1cc2ncnn2cc1Nc1ncc2c(n1)n(C1CCOCC1)c(=O)n2C` [AZD7648, 7-methyl-2-((7-methyl-[1,2,4]triazolo[l,5-a]pyridin-6-yl)amino)-9-(tetrahydro-2H-pyran-4-yl)-7,9-dihydro-8H-purin-8-one], the “increase in HDR” value in [1] is recorded as “up to 50 fold”. Also, the “INDELs after gene targeting” value is recorded as “INDEL-free” in data set [2] and “INDEL-free HDR” in data set [6]. Besides, the “phosphorylation of AKT (Ser473)” value in data set [3] is reported as “did not affect the phosphorylation of AKT”. In [4] (CF patient derived HBECs), the “alleles with INDELs vs untreated” value is given as “much lower frequency of alleles with INDELs”. For the same compound, the “improvement of frequency of gene targeted (GFP+) cells” value in data set [4] (exon 1 knock-in) was “around 2 fold”. Moreover, the viable cell count entry in [5] (0.5 μM, different AAV6 MOIs) is listed as “very little drop in viable cell count”. In [5] (72 h post-gene targeting, different concentrations), the “viable cell count vs mock and untreated controls” value is given as “minimal drop in viable cell count”. In addition, the “effect on gene targeting vs untreated” value was “enhanced the gene targeting significantly; also recorded: significant improvement” in data set [7] and “enhanced the gene targeting significantly” in data set [8]. Further, in [9] (0.5 μM), the “total colony number and colony type distribution” value is listed as “did not cause further decrease in total colony number nor a change in the colony type distribution”. Also, in data set [9] (BFU-E and CFU-GM, 0.5 μM), the “increase of colonies with bi-allelic HDR knock-in” value is given as “more than 7 fold”. For the same compound, the “colonies with bi-allelic HDR knock-in” value was 67% in [9] (BFU-E) and 78% in data set [9] (CFU-GM).
